Laboratory results from ChEMBL document CHEMBL4507292 (2021).

How the values were obtained:
[1] = biological target: Prostaglandin E2 receptor EP3 subtype (Homo sapiens, UniProt P43115); assay: (§1) Prostanoid EP3 Eurofins-Panlabs radioligand binding assay; design: ligand concentration 0.5 nM, non-specific ligand with concentration 10 µM Prostaglandin EŽ2 (PGE2), incubation time 60 min, incubation temperature 25 °C
[2] = biological target: T1, Prostaglandin E2 receptor EP3 subtype (Homo sapiens) (UniProt P43115); assay: as §1; design: ligand concentration 0.5 nM, non-specific ligand with concentration 10 µM Prostaglandin EŽ2 (PGE2), incubation time 60 min, incubation temperature 25 °C
T1 sequence (whole entry): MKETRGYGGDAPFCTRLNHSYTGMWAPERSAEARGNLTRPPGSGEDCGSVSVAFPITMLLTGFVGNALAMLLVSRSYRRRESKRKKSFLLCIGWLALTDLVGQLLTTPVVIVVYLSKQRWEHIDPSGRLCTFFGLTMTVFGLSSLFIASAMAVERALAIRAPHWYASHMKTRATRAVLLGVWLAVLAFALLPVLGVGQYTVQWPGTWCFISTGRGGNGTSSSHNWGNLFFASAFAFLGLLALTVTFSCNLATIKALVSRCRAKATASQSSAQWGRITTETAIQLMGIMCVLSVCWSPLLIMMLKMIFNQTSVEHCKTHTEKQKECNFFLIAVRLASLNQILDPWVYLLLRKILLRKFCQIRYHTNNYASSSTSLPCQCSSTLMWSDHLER

[3] = species: Homo sapiens; assay: (§2) Prostanoid, Thromboxane A2 (TP) Eurofins-Panlabs radioligand binding assay; design: ligand concentration 5 nM, non-specific ligand with concentration 1 µM SQ-29548, incubation time 30 min, incubation temperature 25 °C
[4] = as §2; design: species or system Homo sapiens; ligand concentration 5 nM, non-specific ligand with concentration 1 µM SQ-29548, incubation time 30 min, incubation temperature 25 °C
[5] = biological target: Histamine H2 receptor (Homo sapiens) (UniProt P25021)
Sequence of Histamine H2 receptor (Homo sapiens) (P25021 whole entry): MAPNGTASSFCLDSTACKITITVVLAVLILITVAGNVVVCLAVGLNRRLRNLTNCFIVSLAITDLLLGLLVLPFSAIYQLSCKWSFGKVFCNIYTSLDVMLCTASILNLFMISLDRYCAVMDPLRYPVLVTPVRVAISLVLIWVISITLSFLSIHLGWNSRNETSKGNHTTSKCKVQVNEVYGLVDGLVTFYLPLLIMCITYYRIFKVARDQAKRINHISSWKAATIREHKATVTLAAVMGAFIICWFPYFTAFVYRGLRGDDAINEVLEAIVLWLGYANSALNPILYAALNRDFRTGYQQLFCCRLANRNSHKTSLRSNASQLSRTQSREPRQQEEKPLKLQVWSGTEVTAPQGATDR

[6] = biological target: Vasopressin V2 receptor (Homo sapiens) (UniProt P30518); assay: Vasopressin V2 Eurofins-Panlabs radioligand binding assay; design: ligand concentration 0.5 nM; conditions: Compound concentration 10.0 uM
Sequence of Vasopressin V2 receptor (Homo sapiens) (P30518 whole entry): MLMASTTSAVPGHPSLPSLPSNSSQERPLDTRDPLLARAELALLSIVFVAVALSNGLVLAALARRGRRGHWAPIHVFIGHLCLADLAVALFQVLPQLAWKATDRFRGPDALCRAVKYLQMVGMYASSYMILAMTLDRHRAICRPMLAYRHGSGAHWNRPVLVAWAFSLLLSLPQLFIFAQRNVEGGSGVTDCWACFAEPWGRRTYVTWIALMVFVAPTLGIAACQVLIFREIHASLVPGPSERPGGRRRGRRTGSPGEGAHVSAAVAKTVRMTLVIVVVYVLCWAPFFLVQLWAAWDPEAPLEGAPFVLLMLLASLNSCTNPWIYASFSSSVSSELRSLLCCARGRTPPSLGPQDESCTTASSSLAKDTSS

[7] = biological target: Receptor-type tyrosine-protein phosphatase C (Homo sapiens) (UniProt P08575); assay: Inhibition of Protein Tyrosine Phosphatase, PTPRC (CD45) at 10 µM in the Eurofins-Panlabs enzyme assay (Eurofins_assay_190010); conditions: Compound concentration 10.0 uM
[8] = biological target: Neuromedin-K receptor (Homo sapiens) (UniProt P29371); assay: Tachykinin NK3 Eurofins-Panlabs radioligand binding assay; design: ligand concentration 0.8 nM; conditions: Compound concentration 10.0 uM
[9] = biological target: Histamine H1 receptor (Homo sapiens) (UniProt P35367); conditions: Compound concentration 10.0 uM
Sequence of Histamine H1 receptor (Homo sapiens) (P35367 whole entry): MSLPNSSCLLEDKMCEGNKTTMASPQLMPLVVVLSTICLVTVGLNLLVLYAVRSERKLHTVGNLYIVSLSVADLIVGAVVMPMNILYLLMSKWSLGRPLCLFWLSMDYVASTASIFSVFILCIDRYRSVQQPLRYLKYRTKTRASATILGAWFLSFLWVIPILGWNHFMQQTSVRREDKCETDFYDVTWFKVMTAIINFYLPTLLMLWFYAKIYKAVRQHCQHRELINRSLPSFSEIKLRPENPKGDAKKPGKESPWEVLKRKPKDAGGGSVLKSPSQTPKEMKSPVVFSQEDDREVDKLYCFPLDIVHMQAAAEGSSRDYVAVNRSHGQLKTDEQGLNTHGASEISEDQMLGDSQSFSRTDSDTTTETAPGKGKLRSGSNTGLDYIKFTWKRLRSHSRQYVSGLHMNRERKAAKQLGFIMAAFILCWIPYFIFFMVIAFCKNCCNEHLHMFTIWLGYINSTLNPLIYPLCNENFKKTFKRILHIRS

[10] = biological target: monoamine oxidase A (MAO-A) (Homo sapiens, UniProt P21397); assay: Inhibition of Monoamine Oxidase MAO-A at compound concentration of 10.0 uM in the Eurofins-Panlabs enzyme assay (Eurofins_assay_140010); design: substrate with concentration 50 uM Kynuramine, incubation time 60 min, incubation temperature 37 C; conditions: human recombinant MAO-A expressed in insect Hi5 cells, probe kynuramine, 50 uM, compound concentration 10 uM
[11] = biological target: Histamine H3 receptor (Homo sapiens) (UniProt Q9Y5N1); assay: Histamine H3 Eurofins-Panlabs radioligand binding assay; conditions: Compound concentration 10.0 uM
Sequence of Histamine H3 receptor (Homo sapiens) (Q9Y5N1 whole entry): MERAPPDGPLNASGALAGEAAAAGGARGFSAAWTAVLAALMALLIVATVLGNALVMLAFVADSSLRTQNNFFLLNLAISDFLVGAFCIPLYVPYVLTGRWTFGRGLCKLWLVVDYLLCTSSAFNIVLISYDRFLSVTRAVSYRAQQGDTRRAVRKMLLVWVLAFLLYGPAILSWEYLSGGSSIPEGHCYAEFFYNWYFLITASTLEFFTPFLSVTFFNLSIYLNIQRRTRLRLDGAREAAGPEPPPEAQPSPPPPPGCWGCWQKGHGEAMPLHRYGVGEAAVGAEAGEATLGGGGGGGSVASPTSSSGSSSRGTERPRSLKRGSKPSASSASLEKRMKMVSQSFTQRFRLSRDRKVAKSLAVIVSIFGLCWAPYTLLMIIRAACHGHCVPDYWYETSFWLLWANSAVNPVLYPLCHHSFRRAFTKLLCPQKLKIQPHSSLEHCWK

[12] = biological target: Type-2 angiotensin II receptor (Homo sapiens) (UniProt P50052); assay: Angiotensin AT2 Eurofins-Panlabs radioligand binding assay; type: protein assay; conditions: Compound concentration 10.0 uM
Sequence of Type-2 angiotensin II receptor (Homo sapiens) (P50052 whole entry): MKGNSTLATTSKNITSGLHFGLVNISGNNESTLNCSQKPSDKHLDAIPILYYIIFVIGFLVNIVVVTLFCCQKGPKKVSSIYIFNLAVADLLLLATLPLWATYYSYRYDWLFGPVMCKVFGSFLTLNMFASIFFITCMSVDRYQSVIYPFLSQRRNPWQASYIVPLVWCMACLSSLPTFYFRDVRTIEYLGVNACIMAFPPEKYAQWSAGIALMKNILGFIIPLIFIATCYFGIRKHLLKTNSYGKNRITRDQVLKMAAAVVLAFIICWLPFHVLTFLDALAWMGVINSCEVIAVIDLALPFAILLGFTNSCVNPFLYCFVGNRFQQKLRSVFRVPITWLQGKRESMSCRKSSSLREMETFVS

[13] = biological target: Glucocorticoid receptor (Homo sapiens) (UniProt P04150); assay: Glucocorticoid Eurofins-Panlabs radioligand binding assay; conditions: Compound concentration 10.0 uM
[14] = biological target: Alpha-2A adrenergic receptor (Homo sapiens, UniProt P08913); assay: Adrenergic alpha2A Eurofins-Panlabs radioligand binding assay; design: ligand concentration 1 nM, non-specific ligand with concentration 10 µM WB-4101, incubation time 60 min, incubation temperature 25 °C
Sequence of Alpha-2A adrenergic receptor (P08913 whole entry): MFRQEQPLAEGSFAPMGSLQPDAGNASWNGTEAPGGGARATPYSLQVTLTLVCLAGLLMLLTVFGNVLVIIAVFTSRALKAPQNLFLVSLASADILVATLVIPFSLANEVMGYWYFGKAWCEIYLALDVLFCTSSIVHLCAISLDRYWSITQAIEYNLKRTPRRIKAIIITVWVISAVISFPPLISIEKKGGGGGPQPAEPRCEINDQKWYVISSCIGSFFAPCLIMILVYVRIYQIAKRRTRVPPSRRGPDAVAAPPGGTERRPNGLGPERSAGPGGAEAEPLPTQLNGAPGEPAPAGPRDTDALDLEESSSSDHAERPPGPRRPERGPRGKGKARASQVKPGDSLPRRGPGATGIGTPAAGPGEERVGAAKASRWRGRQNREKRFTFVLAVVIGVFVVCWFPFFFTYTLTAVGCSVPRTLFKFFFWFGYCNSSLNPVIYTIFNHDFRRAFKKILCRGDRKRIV

[15] = biological target: Caspase-1 (Homo sapiens) (UniProt P29466); assay: Inhibition of Peptidase, CASP1 (Caspase 1) at 10 µM in the Eurofins-Panlabs enzyme assay (Eurofins_assay_163000); conditions: Compound concentration 10.0 uM
Sequence of Caspase-1 (Homo sapiens) (P29466 120-297 limits assumed): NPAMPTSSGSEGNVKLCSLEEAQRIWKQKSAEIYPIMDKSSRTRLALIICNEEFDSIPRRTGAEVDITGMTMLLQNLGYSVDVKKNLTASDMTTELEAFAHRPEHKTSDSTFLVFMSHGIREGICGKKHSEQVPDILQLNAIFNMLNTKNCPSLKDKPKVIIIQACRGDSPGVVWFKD
Sequence of Caspase-1 (Homo sapiens) (P29466 317-404 limits assumed): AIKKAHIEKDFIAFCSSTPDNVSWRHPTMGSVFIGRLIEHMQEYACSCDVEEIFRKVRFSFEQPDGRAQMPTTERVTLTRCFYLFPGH

[16] = biological target: Galanin receptor type 2 (Homo sapiens) (UniProt O43603); assay: Galanin GAL2 Eurofins-Panlabs radioligand binding assay; design: ligand concentration 0.02 nM; conditions: Compound concentration 10.0 uM
[17] = biological target: C-X-C chemokine receptor type 2 (Homo sapiens) (UniProt P25025); assay: Inhibition of Chemokine CXCR2 (IL-8RB) at 10 µM in the Eurofins-Panlabs radioligand binding assay (Eurofins_assay_244500)
[18] = species: Homo sapiens; assay: Estrogen ERbeta Eurofins-Panlabs radioligand binding assay; conditions: Compound concentration 10.0 uM
[19] = biological target: Inositol 1,4,5-trisphosphate-gated calcium channel ITPR1 (Homo sapiens) (UniProt Q14643); assay: Inositol Trisphosphate IP3 Eurofins-Panlabs radioligand binding assay; conditions: Rattus norvegicus; Compound concentration 10.0 uM
[20] = biological target: Insulin receptor (Homo sapiens, UniProt P06213); assay: Protein Tyrosine Kinase, Insulin Receptor Eurofins-Panlabs enzyme assay; design: substrate with concentration 10 µg/mL […], incubation time 60 min, incubation temperature 25 °C
Sequence of Insulin receptor (P06213 28-758 limits assumed): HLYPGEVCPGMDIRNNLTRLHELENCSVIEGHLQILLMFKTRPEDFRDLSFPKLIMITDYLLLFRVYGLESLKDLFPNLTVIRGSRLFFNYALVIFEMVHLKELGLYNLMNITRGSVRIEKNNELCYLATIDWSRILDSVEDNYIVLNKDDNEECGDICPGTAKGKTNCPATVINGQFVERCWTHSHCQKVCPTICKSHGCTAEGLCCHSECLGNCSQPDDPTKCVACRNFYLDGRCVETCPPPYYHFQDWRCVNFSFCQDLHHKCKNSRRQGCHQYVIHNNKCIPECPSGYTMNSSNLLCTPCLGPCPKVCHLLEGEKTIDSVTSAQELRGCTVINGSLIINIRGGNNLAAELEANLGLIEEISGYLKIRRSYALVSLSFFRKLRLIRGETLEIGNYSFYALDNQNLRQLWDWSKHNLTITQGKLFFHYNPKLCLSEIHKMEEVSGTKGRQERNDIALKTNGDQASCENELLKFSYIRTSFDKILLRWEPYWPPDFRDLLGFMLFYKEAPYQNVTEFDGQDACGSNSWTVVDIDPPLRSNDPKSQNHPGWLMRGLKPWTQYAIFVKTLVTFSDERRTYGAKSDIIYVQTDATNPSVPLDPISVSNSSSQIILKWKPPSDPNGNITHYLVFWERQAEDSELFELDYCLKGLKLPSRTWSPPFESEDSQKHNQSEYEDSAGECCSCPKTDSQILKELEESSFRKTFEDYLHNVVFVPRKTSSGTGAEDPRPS
Sequence of Insulin receptor (P06213 763-1382 limits assumed): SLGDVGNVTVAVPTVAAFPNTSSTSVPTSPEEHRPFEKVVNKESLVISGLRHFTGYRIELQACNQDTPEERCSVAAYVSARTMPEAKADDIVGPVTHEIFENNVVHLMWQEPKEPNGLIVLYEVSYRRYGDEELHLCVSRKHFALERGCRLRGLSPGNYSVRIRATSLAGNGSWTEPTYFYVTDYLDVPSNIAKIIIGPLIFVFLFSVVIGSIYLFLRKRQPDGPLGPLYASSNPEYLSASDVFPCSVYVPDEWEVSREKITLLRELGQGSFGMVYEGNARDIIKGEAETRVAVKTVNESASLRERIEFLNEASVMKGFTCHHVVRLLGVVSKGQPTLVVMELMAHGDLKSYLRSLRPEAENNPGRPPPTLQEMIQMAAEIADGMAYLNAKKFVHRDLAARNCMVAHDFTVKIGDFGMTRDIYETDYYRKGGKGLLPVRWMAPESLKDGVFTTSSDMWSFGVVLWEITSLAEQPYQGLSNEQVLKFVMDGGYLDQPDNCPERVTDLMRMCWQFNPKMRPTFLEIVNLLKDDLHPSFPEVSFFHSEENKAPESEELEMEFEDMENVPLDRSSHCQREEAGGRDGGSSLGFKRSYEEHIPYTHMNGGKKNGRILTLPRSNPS

[21] = biological target: Gamma-aminobutyric acid type B receptor subunit 1 (Homo sapiens) (UniProt Q9UBS5); conditions: Rattus norvegicus; Compound concentration 10.0 uM
[22] = biological target: cGMP-specific 3',5'-cyclic phosphodiesterase (Homo sapiens, UniProt O76074)
[23] = species: Rattus norvegicus; assay: Adrenergic α1, Non-selective Eurofins-Panlabs radioligand binding assay; type: protein assay; conditions: Compound concentration 10.0 uM
[24] = biological target: Glutamate NMDA receptor; GRIN1/GRIN2A (Homo sapiens) (UniProt Q05586+Q12879); assay: NMDA-NR1a/NR2a Eurofins-Panlabs radioligand binding assay; type: protein-complex assay; conditions: Compound concentration 10.0 uM
[25] = biological target: Peroxisome proliferator-activated receptor gamma (Homo sapiens) (UniProt P37231); assay: PPARgamma Eurofins-Panlabs radioligand binding assay; design: ligand concentration 5 nM, non-specific ligand with concentration 0.5 µM L-797773, incubation time 18 h, incubation temperature 15 °C; conditions: Compound concentration 10.0 uM
[26] = biological target: Substance-P receptor (Homo sapiens) (UniProt P25103); assay: Tachykinin NK1 Eurofins-Panlabs radioligand binding assay; conditions: Compound concentration 10.0 uM
[27] = biological target: Melanocortin receptor 4 (Homo sapiens) (UniProt P32245); assay: Inhibition of Melanocortin MC4 at 10 µM in the Eurofins-Panlabs radioligand binding assay (Eurofins_assay_251350); design: ligand concentration 0.02 nM; conditions: Compound concentration 10.0 uM
[28] = biological target: D(3) dopamine receptor (Homo sapiens) (UniProt P35462)
Sequence of D(3) dopamine receptor (Homo sapiens) (P35462 whole entry): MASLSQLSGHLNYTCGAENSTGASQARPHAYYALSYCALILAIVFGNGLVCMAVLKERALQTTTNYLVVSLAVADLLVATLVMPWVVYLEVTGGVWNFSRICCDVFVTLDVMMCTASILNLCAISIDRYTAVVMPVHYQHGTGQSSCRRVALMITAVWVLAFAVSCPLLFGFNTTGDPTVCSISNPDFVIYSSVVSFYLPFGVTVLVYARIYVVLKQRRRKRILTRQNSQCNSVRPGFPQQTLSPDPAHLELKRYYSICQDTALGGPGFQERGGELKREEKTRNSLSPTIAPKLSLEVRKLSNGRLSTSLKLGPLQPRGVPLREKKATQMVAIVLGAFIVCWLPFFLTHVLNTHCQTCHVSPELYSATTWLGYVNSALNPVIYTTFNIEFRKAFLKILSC

[29] = biological target: Somatostatin receptor type 3 (Homo sapiens) (UniProt P32745); assay: Somatostatin sst3 Eurofins-Panlabs radioligand binding assay; conditions: concentration not given here
Sequence of Somatostatin receptor type 3 (Homo sapiens) (P32745 whole entry): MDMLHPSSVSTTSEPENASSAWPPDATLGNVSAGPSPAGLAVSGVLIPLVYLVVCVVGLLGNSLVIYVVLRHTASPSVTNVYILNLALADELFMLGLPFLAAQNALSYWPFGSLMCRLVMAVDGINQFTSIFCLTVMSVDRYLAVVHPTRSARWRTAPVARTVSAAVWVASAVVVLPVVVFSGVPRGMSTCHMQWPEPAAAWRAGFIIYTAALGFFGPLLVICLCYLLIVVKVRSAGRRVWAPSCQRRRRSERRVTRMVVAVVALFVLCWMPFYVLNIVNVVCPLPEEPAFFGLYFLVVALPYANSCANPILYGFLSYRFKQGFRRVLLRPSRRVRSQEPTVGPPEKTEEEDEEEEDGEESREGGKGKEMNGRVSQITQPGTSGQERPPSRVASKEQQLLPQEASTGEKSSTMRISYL

[30] = biological target: Glutamate receptor 2 (Homo sapiens) (UniProt P42262); conditions: Rattus norvegicus; Compound concentration 10.0 uM

O=C(O)c1cc(-c2ccc(C3CCNCC3)cc2)c2ccc(-c3ccc(C(F)(F)F)cc3)cc2c1 [PPTN]
IC50 [1]: 9.27 µM | inhibition ([2]; Compound concentration 0.01 uM): 11% | inhibition ([2]; Compound concentration 0.1 uM): 14% | inhibition ([2]; Compound concentration 1.0 uM): 4% | inhibition ([2]; Compound concentration 10.0 uM): 53% | inhibition ([3]; Compound concentration 0.01 uM): 14% | inhibition ([3]; Compound concentration 0.1 uM): -5% | inhibition ([3]; Compound concentration 1.0 uM): 9% | inhibition ([3]; Compound concentration 10.0 uM): 51% | IC50 [4]: 9.5 µM | Ki [4]: 6.2 µM | inhibition ([5]; Compound concentration 0.01 uM): 9% | inhibition ([5]; Compound concentration 0.1 uM): 4% | inhibition ([5]; Compound concentration 1.0 uM): 7% | inhibition ([5]; Compound concentration 10.0 uM): 101% | inhibition [6]: 28% | inhibition [7]: -7% | inhibition [8]: 29% | inhibition [9]: -1% | inhibition at 60 min, 10 µM [10]: 22% (not active) | inhibition [11]: 0% | inhibition [12]: 11% | inhibition [13]: -9% | IC50 [14]: 4.07 µM | Ki [14]: 1.53 µM | inhibition [15]: -1% | inhibition [16]: 31% | inhibition [17]: 2% | inhibition [18]: 1% | inhibition [19]: 9% | IC50 [20]: 4.31 µM | inhibition ([20]; Compound concentration 0.01 uM): 1% | inhibition ([20]; Compound concentration 0.1 uM): -10% | inhibition ([20]; Compound concentration 1.0 uM): 14% | inhibition ([20]; Compound concentration 10.0 uM): 75% | inhibition [21]: 3% | IC50 [22]: 38.2 µM | inhibition [23]: -4% | inhibition [24]: 12% | inhibition [25]: 4% | inhibition [26]: 1% | inhibition [27]: 28% | inhibition ([28]; Compound concentration 0.01 uM): 3% | inhibition ([28]; Compound concentration 0.1 uM): 1% | inhibition ([28]; Compound concentration 1.0 uM): 12% | inhibition ([28]; Compound concentration 10.0 uM): 56% | inhibition [29]: 35% | inhibition [30]: -2%
